Here are results for one molecule from patent US6046228A, “Anti-viral pharmaceutical compositions containing saturated 1,2-dithiaheterocyclic compounds and uses thereof” (priority 1999, dated 2000).

Like-named read-outs stand apart in the source and are kept apart here.

The subject of one experiment is HIV-2ROD. The experiment can be described thus: XTT cytopathicity assay, other retroviruses. In kind it is cell-based. Particulars: Human immunodeficiency virus 2, CEM-SS. The protocol: (§1) Initial anti-HIV screening was performed with CEM-SS cells and HIV-1RFusing the XTT cytoprotection assay as previously described (Weislow et al., J. National Cancer Inst. 81: 577-586, (1989)). HIV-1 isolates included common laboratory stains (RF, IIIB and MN), as well as a panel of HIV-1 clinical isolates (Cushman et al., J. Med. Chem. 37: 3040-3050, (1994)). The pyridone-resistant HIV-1A17 isolate (Nunberg et al., J. Virol., 65: 4887-4892 (1991)) was obtained from Emilio Emini at Merck Sharpe and Dohme Laboratories. Phytohemagglutinin-stimulated human peripheral blood lymphocytes (PBLs) and fresh monocyte-macrophage (Mono/MF) cultures were prepared and utilized in antiviral assays as previously described (Rice et al., Proc. Nat'l. Academy Science, USA 90: 9721-9724, (1993)); (Cushman et al., J. Med. Chem. 37: 3040-3050, (1994)). EC50 values for these cultures indicate the drug concentration that provided a 50% reduction in viral p24 production. […] The compounds can be synthesized according to the teachings of Singh et al., Sulfur Letters 8: 107-114, (1988). The 4,5-cis-dihydroxy(1,1-dioxy-1,2,-dithiohexane) compound (NSC 624151) has been abbreviated as 624151 for convenience. […]

The target in a further experiment is T1, HIV-1 integrase (Human immunodeficiency virus type 1 group M subtype B, UniProt P04585).
T1 construct: the purified HIV-1 protease and integrase enzymes
In words: HIV-1 integrase activity. In kind it is biochemical.

In the next experiment the test system is HIV-1, HIV-2 and SIV. The experiment can be described thus: range of antiviral action studies. In kind it is cell-based. Particulars: in words. As to the method: as §1
For another experiment, the system named is HIV-1ADA. The experiment can be described thus: antiviral assay in monocyte-macrophage cultures (p24). In kind it is cell-based. To be noted: Human immunodeficiency virus 1. As to the method: as §1, with “convenience. MT-2, MT-4, U1, HeLa-CD4-LTR-β-gal and 174xCEM cells were obtained from the AIDS Research and Reference Program (National Institute of Allergy and Infectious Disease, National Institutes of Health, Bethesda, Md. USA), as were the HIV-2MS and the AZT-resistant HIV-1G910-6 isolates.” for “convenience.”

In a further experiment the target is T2, HIV-1 p7NC protein (Human immunodeficiency virus type 1 group M subtype B, UniProt P04591).
T2 construct: recombinant HIV-1 p7NC protein
In words: TSQ zinc release assay from p7NC. To be noted: 10 μM, 2 hours, FIG. 1(B), in words. It is filed as biochemical. As to the method:
Fluorescence measurements of the Trp^37 residue in the C-terminal zinc finger of the recombinant HIV-1 p7NC protein were performed as previously described (Rice et al., Science 270:1194, 1995). The p7NC protein was prepared at 20 μg/ml in 10 mM sodium phosphate buffer (pH 7.0), treated with 25 μM of each compound, then after indicated time intervals the samples were diluted 1/10 in 10 mM sodium phosphate buffer (pH 7.0) and the fluorescence intensity measured. The excitation and emission wavelengths utilized with the Shimadzu RF5000 spectrofluorimeter were 280 nm and 351 nm, respectively. In an alternate assay, the zinc-selective fluorescent probe N-(6-methoxy-8quinolyl-)-p-toluenesulfonamide (TSQ, Molecular Probes, Eugene, Oreg.) originally described by Fredrickson (J. Neurosci. Meth. 20:91, 1987) was utilized to measure zinc released from the p7NC protein in vitro. Briefly, 2 μM recombinant HIV-1 p7NC protein in 10 mM sodium phosphate buffer, pH 7.0, 10% glycerol was treated with 10 μM 624151 ([…] total volume in 96-well plates), and the time-dependent increase in fluorescence was measured on a Labsystems Fluoroskan II (360 nm excitation filter and 460 nm emission filter) over a period of 2 hours. […] Virus pellets were resolved by non-reducing SDS-PAGE and analyzed by immunoblot using monospecific rabbit antisera to the purified p7NC protein. […]

Another experiment deals with HIV-1NL4-3. The experiment can be described thus: XTT cytopathicity assay, NL4-3 without RT mutation. To be noted: Human immunodeficiency virus 1, NL43; MT-2, NL4-3, RT mutation None. It is filed as cell-based. As to the method:
as §1

Consider `O=S1(=O)C[C@H](O)[C@H](O)CS1` (relative stereo) [NSC 624151, cis-1,1-dioxo[1,2]dithiane-4,5-diol], for which the EC50 with HIV-2ROD turned out to be 15.6 µM; with HIV-1ADA (HIV-1ADA, monocyte/macrophage cultures, 50% reduction in p24, read-out: Mo/M.PHI. EC50), 8 µM; in the experiment on HIV-1ADA (Mo/M.PHI., ADA, cell-free p24, Table 2, read-out: EC50) it was 2.1 µM; in the experiment with HIV-1NL4-3 it was 16.6 µM. For the same molecule, the “inhibition of HIV-1 integrase” value against HIV-1 integrase (in words) is “not inhibited”. For the same molecule, the IC50 at HIV-1 integrase (read-out: Integrase ID50) was greater than 100 µM. Also, the “inhibition of replication of laboratory and drug-resistant HIV-1 strains” value in the experiment with HIV-1, HIV-2 and SIV (RF, IIIB, SK1, MN, AZT-, nevirapine-, pyridinone-, NNRTI-resistant strains) is “effectively inhibited replication”. For the same molecule, in the experiment on HIV-1, HIV-2 and SIV, the “activity against RT mutants, clinical strains, clades, HIV-2 and SIV” value is listed as “active against”. At HIV-1 p7NC protein, the “zinc ejection from p7NC measured with TSQ” value is “promote zinc ejection from the p7NC protein in vitro was confirmed”.
